Measurements taken from the supplement of paper PMC10331698.
± gives the standard deviation of the averaged measurements.

Experiments:
Assay in all cases: level (log10 ratio to DMSO vehicle control); higher = higher biomarker level / cell amount than vehicle control
[1] = compound: OCCCC(F)(F)C(F)(F)C(F)(F)C(F)(F)C(F)(F)C(F)(F)C(F)(F)C(F)(F)F [3-(Perfluorooctyl)propanol]; conditions: 6700 nM; in DMSO
Procedure: (§1)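 BioMAP Diversity Plus panel of 12 human primary cell co-culture systems (3C, 4H, LPS, SAg, BT, BF4T, BE3C, CASM3C, HDF3CGF, KF3CT, MyoF, Mphg). Compounds were added 1 h before stimulation and left for 24 h (MyoF 48 h; BT 72 h for soluble read-outs or 6 d for IgG). Biomarkers were read by ELISA, cytotoxicity by SRB, PBMC viability and proliferation by Alamar Blue. Each well value was divided by the mean of 8 DMSO control wells on the same plate and log10 transformed; duplicate blinded samples were tested at 4 concentrations.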

[2] = compound: O=P(O)(O)CCC(F)(F)C(F)(F)C(F)(F)C(F)(F)C(F)(F)C(F)(F)F [2-(Perfluorohexyl)ethylphosphonic acid]; conditions: in DMSO
Procedure: as §1

[3] = compound: O=C(O)C(F)(F)C(F)(F)C(F)(F)C(F)(F)C(F)(F)C(F)(F)C(F)(F)F [Ammonium perfluorooctanoate]; conditions: in DMSO
Procedure: as §1

Row | Test System | level (log10) [1] | level (log10) ([2]; 6700 nM) | level (log10) ([2]; 20000 nM) | level (log10) ([2]; 60000 nM) | level (log10) ([3]; 6700 nM) | level (log10) ([3]; 20000 nM) | level (log10) ([3]; 60000 nM)
1 | BE3C:EGFR | -0.018 ± 0.0071 | -0.0045 ± 0.0021 | -0.015 ± 0.014 | 0.0005 ± 0.022 | -0.006 ± 0.0028 | 0.001 ± 0.028 | -0.022 ± 0.013
2 | 3C:CXCL9/MIG | -0.0075 ± 0.0092 | -0.004 ± 0.0071 | -0.003 ± 0.0014 | 0.01 ± 0.025 | -0.006 ± 0.02 | 0.002 ± 0.0099 | 0.0285 ± 0.013
3 | BF4T:MMP-1 | 0.022 ± 0.0099 | -0.0045 ± 0.0092 | -0.004 | 0.0035 ± 0.026 | -0.0025 ± 0.016 | -0.004 ± 0.014 | 0.0105 ± 0.012
4 | LPS:sPGE2 | -0.061 ± 0.061 | -0.0245 ± 0.013 | -0.0005 ± 0.019 | 0.0035 ± 0.025 | -0.0185 ± 0.022 | -0.067 ± 0.018 | -0.172 ± 0.044
5 | BF4T:MMP-3 | 0.018 ± 0.03 | -0.0205 ± 0.005 | -0.0125 ± 0.022 | -0.002 ± 0.023 | 0.003 ± 0.0014 | 0.0165 ± 0.011 | 0.084 ± 0.02
6 | LPS:IL-1alpha | -0.267 ± 0.065 | 0.0055 ± 0.0092 | -0.026 ± 0.014 | -0.0195 ± 0.087 | 0.019 ± 0.0042 | 0.0045 ± 0.00071 | -0.034 ± 0.024
7 | LPS:SRB | -0.033 ± 0.018 | -0.003 ± 0.0057 | -0.006 ± 0.0028 | -0.023 ± 0.021 | -0.006 ± 0.0071 | -0.0065 ± 0.00071 | -0.0245 ± 0.005
8 | SAg:CD38 | -0.017 ± 0.016 | 0.018 | 0.0025 ± 0.016 | -0.0055 ± 0.011 | -0.011 ± 0.018 | -0.0055 ± 0.0064 | -0.051 ± 0.017
9 | 3C:HLA-DR | -0.03 ± 0.0028 | -0.0055 ± 0.012 | -0.0135 ± 0.00071 | -0.0085 ± 0.044 | -0.005 ± 0.0042 | 0 ± 0.0014 | 0.004 ± 0.016
10 | BT:sIL-17F | -0.101 ± 0.015 | 0.0655 ± 0.084 | 0.008 ± 0.0014 | -0.0175 ± 0.069 | -0.0405 ± 0.13 | -0.0495 ± 0.094 | -0.0615 ± 0.14
11 | SAg:CD40 | -0.029 ± 0.025 | 0.007 ± 0.0028 | 0.0015 ± 0.00071 | -0.026 ± 0.0099 | -0.008 ± 0.011 | -0.022 | -0.0695 ± 0.011
12 | BT:Secreted IgG | 0.009 ± 0.016 | 0.0125 ± 0.0021 | 0.002 ± 0.0099 | -0.046 ± 0.047 | 0.032 ± 0.017 | 0.0155 ± 0.037 | -0.019 ± 0.033
13 | BT:sTNF-alpha | -0.0805 ± 0.029 | 0.114 ± 0.04 | 0.0475 ± 0.018 | 0.048 ± 0.24 | -0.033 ± 0.038 | -0.0095 ± 0.12 | 0.001 ± 0.13
14 | 4H:CCL2/MCP-1 | 0.0195 ± 0.0078 | -0.0295 ± 0.0092 | -0.031 ± 0.025 | -0.0215 ± 0.054 | -0.01 ± 0.0057 | -0.026 ± 0.0085 | -0.0475 ± 0.039
15 | BT:sIL-6 | 0.0875 ± 0.052 | 0.0645 ± 0.013 | -0.007 ± 0.0042 | 0.0015 ± 0.025 | -0.0485 ± 0.0021 | -0.0025 ± 0.037 | -0.034 ± 0.085
16 | BF4T:tPA | 0.056 ± 0.016 | -0.059 ± 0.0014 | -0.067 ± 0.0057 | -0.0615 ± 0.064 | -0.0185 ± 0.0064 | -0.041 ± 0.018 | -0.0565 ± 0.0021
17 | BF4T:Keratin 8/18 | 0.021 ± 0.051 | -0.0045 ± 0.015 | -0.0065 ± 0.012 | 0.0105 ± 0.022 | 0.009 ± 0.028 | 0.013 ± 0.0057 | 0.017 ± 0.014

Row | Test System | level (log10) [1] | level (log10) ([2]; 6700 nM) | level (log10) ([2]; 20000 nM) | level (log10) ([2]; 60000 nM) | level (log10) ([3]; 6700 nM) | level (log10) ([3]; 20000 nM) | level (log10) ([3]; 60000 nM)
18 | 4H:SRB | -0.0015 ± 0.00071 | -0.005 ± 0.024 | -0.0065 ± 0.021 | -0.0005 ± 0.032 | -0.004 ± 0.011 | -0.0115 ± 0.005 | -0.0245 ± 0.0078
19 | BF4T:CD54/ICAM-1 | -0.007 ± 0.016 | -0.022 ± 0.018 | -0.0245 ± 0.00071 | -0.0125 ± 0.0092 | -0.009 ± 0.02 | -0.016 ± 0.0014 | -0.0415 ± 0.023
20 | BF4T:IL-1alpha | -0.012 ± 0.0014 | 0.0005 ± 0.015 | -0.014 ± 0.013 | 0.002 ± 0.042 | -0.02 ± 0.014 | -0.0235 ± 0.0035 | -0.0365 ± 0.015
21 | BF4T:uPA | 0.006 ± 0.0085 | -0.0445 ± 0.037 | -0.0475 ± 0.028 | -0.0465 ± 0.013 | 0.014 ± 0.0028 | 0.0175 ± 0.0021 | 0.042 ± 0.013
22 | LPS:CD62E/E-Selectin | -0.148 ± 0.079 | -0.0005 ± 0.015 | -0.004 ± 0.011 | 0.0465 ± 0.012 | -0.0015 ± 0.0092 | -0.012 ± 0.0028 | 0.0025 ± 0.013
23 | LPS:CD142/Tissue Factor | -0.126 ± 0.066 | 0.0045 ± 0.1 | 0.054 ± 0.047 | 0.119 ± 0.052 | 0.016 ± 0.03 | 0.0045 ± 0.016 | 0.0105 ± 0.015
24 | LPS:CD106/VCAM-1 | -0.158 ± 0.17 | -0.021 ± 0.021 | -0.0185 ± 0.0021 | -0.011 ± 0.023 | 0.001 ± 0.0042 | 0.0035 ± 0.015 | -0.013 ± 0.0028
25 | 4H:CD106/VCAM-1 | 0.0065 ± 0.021 | 0.0205 ± 0.0064 | 0.025 ± 0.0085 | -0.01 ± 0.0028 | 0.0225 ± 0.0021 | 0.036 ± 0.0085 | 0.0215 ± 0.026
26 | BE3C:CD54/ICAM-1 | 0.023 ± 0.0071 | -0.01 ± 0.0028 | -0.02 ± 0.021 | -0.0085 ± 0.03 | -0.01 ± 0.014 | -0.0085 ± 0.0021 | -0.0015 ± 0.015
27 | LPS:CD40 | -0.039 ± 0.018 | 0.002 ± 0.062 | -0.012 ± 0.018 | 0.0205 ± 0.028 | 0.024 ± 0.025 | 0.0265 ± 0.088 | -0.117 ± 0.093
28 | 4H:VEGFR2 | -0.013 ± 0.0085 | 0.0465 ± 0.015 | 0.0335 ± 0.0035 | -0.002 ± 0.027 | -0.0055 ± 0.0035 | -0.009 ± 0.0014 | -0.0455 ± 0.098
29 | BF4T:CXCL8/IL-8 | 0.006 ± 0.023 | -0.0405 ± 0.00071 | -0.0595 ± 0.0064 | -0.034 ± 0.0085 | 0.0135 ± 0.047 | 0.043 ± 0.058 | 0.04 ± 0.088
30 | BF4T:PAI-I | -0.016 ± 0.024 | -0.0075 ± 0.0092 | -0.0115 ± 0.0035 | -0.016 ± 0.038 | 0.011 ± 0.0085 | 0.0055 ± 0.0021 | 0.0185 ± 0.016
31 | SAg:CD62E/E-Selectin | -0.014 ± 0.0099 | 0.004 ± 0.0042 | 0.0015 ± 0.0021 | 0.0635 ± 0.021 | 0.0045 ± 0.0035 | 0.02 ± 0.013 | 0.035 ± 0.0014
32 | BE3C:CD87/uPAR | 0.02 ± 0.047 | -0.035 ± 0.065 | -0.029 ± 0.047 | -0.0125 ± 0.12 | 0.0105 ± 0.022 | 0.0315 ± 0.0035 | 0.0125 ± 0.023
33 | BF4T:CD90 | -0.0195 ± 0.018 | -0.0185 ± 0.023 | -0.0165 ± 0.005 | -0.008 ± 0.031 | -0.007 ± 0.0028 | -0.015 ± 0.0028 | -0.001 ± 0.0028
34 | SAg:PBMC Cytotoxicity | -0.003 ± 0.023 | -0.019 ± 0.023 | 0.012 ± 0.037 | -0.0165 ± 0.026 | 0.011 ± 0.035 | 0.049 ± 0.011 | 0.052 ± 0.04
